{"source": "ChEMBL document CHEMBL6182930", "about": "“Discovery of TBK1Molecular Glue Degraders as a Potential Strategy for the Treatment of Autosomal Dominant Polycystic Kidney Disease (ADPKD)” (J Med Chem, 2025)", "key": {"Mus musculus [1]": {"tested_on": "Mus musculus", "assay": "In vivo molecular glue activity at RNF126/TBK1 in PKD1 knockout ADPKD (Pkd1 flox/flox; Ksp-Cre) C57BL/6 mouse model assessed as decrease in phosphorylated STING level in kidney at 5 mg/kg, SC administered from postnatal day 6 and measured on postnatal day 12 by Western blot analysis", "format": "functional, organism-based", "details": "time 7.0 day"}, "Mus musculus [2]": {"tested_on": "Mus musculus", "assay": "Inhibition of renal cystogenesis in PKD1 knockout ADPKD (Pkd1 flox/flox; Ksp-Cre) C57BL/6 mouse model assessed as reduction in renal cystic index at 5 mg/kg, SC administered from postnatal day 6 and measured on postnatal day 12 (reference value: 20.0 +/- 1.3 %)", "format": "functional", "design": "scale not given: the % may be the effect or the level left", "details": "time 7 day"}, "[3]": {"target": "T1, E3 ubiquitin-protein ligase RNF126/Serine/threonine-protein kinase TBK1 (Homo sapiens, UniProt Q9UHD2+Q9BV68)", "T1 sequence (Q9BV68 2-311 partner limits assumed)": "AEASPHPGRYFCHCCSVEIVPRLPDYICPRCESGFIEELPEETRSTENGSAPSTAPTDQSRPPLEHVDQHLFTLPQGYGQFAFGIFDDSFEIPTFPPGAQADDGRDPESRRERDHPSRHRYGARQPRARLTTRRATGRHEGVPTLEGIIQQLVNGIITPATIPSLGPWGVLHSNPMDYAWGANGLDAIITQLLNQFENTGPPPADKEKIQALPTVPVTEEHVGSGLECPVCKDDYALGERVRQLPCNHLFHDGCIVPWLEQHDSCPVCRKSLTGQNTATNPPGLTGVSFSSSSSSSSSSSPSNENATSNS", "T1 sequence (Q9UHD2 whole entry)": "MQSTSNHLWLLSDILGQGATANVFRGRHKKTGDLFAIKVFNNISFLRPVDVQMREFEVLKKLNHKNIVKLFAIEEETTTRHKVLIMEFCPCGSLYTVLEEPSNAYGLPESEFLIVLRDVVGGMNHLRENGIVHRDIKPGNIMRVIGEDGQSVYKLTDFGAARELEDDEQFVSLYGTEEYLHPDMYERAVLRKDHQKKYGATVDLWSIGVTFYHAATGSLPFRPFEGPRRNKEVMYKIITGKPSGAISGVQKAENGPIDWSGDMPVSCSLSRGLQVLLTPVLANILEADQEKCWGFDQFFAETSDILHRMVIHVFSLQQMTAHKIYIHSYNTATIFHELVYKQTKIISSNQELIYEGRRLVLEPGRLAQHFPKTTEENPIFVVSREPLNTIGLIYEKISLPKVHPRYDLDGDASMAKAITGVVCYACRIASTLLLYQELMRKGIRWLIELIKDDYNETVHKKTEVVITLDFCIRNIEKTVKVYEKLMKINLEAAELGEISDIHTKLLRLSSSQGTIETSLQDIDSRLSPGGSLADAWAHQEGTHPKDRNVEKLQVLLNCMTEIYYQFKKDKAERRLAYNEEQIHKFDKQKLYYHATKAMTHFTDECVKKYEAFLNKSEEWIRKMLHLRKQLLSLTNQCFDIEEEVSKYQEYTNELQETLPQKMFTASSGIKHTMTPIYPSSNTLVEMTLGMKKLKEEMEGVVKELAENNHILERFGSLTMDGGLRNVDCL", "assay": "Molecular glue activity at RNF126/TBK1 in human A549 cells assessed as induction of TBK1 degradation at 1 uM by Western blot analysis", "format": "cell-based", "details": "time 2-24 hrs"}, "Mus musculus [4]": {"tested_on": "Mus musculus", "assay": "Anti-inflammatory activity in PKD1 knockout ADPKD (Pkd1 flox/flox; Ksp-Cre) C57BL/6 mouse model assessed as decrease in Ccl2 level in kidney at 5 mg/kg, SC administered from postnatal day 6 and measured on postnatal day 12 by RT-qPCR analysis", "format": "functional, organism-based", "details": "time 7.0 day"}, "[5]": {"target": "T1, E3 ubiquitin-protein ligase RNF126/Serine/threonine-protein kinase TBK1", "assay": "Molecular glue activity at RNF126/TBK1 in human A549 cells assessed as induction of TBK1 degradation at 1 uM incubated for 16 hrs by Western blot analysis", "format": "cell-based"}, "[6]": {"assay": "Tmax in rat at 10 mg/kg, po measured after 24 hrs by LC-MS/MS analysis", "format": "ADME, organism-based", "details": "in vivo"}, "Mus musculus [7]": {"tested_on": "Mus musculus", "assay": "Anti-inflammatory activity in PKD1 knockout ADPKD (Pkd1 flox/flox; Ksp-Cre) C57BL/6 mouse model assessed as decrease in TNF-alpha level in kidney at 5 mg/kg, SC administered from postnatal day 6 and measured on postnatal day 12 by RT-qPCR analysis", "format": "functional, organism-based", "details": "time 7.0 day"}, "[8]": {"target": "T1, E3 ubiquitin-protein ligase RNF126/Serine/threonine-protein kinase TBK1", "assay": "Molecular glue activity at RNF126/TBK1 in human A549 cells assessed as induction of TBK1 degradation at 1 uM measured after 6 hrs by Western blot analysis", "format": "cell-based"}, "Mus musculus [9]": {"tested_on": "Mus musculus", "assay": "Anti-inflammatory activity in PKD1 knockout ADPKD (Pkd1 flox/flox; Ksp-Cre) C57BL/6 mouse model assessed as decrease in IL-1beta level in kidney at 5 mg/kg, SC administered from postnatal day 6 and measured on postnatal day 12 by RT-qPCR analysis", "format": "functional, organism-based", "details": "time 7.0 day"}, "[10]": {"assay": "Cmax in rat at 2 mg/kg, iv measured after 24 hrs by LC-MS/MS analysis", "format": "ADME, organism-based", "details": "in vivo"}, "Mus musculus [11]": {"tested_on": "Mus musculus", "assay": "Anti-inflammatory activity in PKD1 knockout ADPKD (Pkd1 flox/flox; Ksp-Cre) C57BL/6 mouse model assessed as decrease in IL-6 level in kidney at 5 mg/kg, SC administered from postnatal day 6 and measured on postnatal day 12 by RT-qPCR analysis", "format": "functional, organism-based", "details": "time 7.0 day"}, "[12]": {"assay": "Tmax in rat at 2 mg/kg, iv measured after 24 hrs by LC-MS/MS analysis", "format": "ADME, organism-based", "details": "in vivo"}, "[13]": {"target": "T1, E3 ubiquitin-protein ligase RNF126/Serine/threonine-protein kinase TBK1", "assay": "Molecular glue activity at RNF126/TBK1 in HEK293T cells assessed as induction of TBK1 degradation at 1 uM by Western blot analysis", "format": "cell-based", "details": "time 2-24 hrs"}, "[14]": {"target": "T1, E3 ubiquitin-protein ligase RNF126/Serine/threonine-protein kinase TBK1", "assay": "Molecular glue activity at RNF126/TBK1 in HEK293T cells assessed as induction of TBK1 degradation by measuring maximal efficacy at 10 to 1000 nM incubated for 16 hrs by Western blot analysis relative to control", "format": "cell-based", "details": "dose 10-1000 nM"}}, "note": "Activity calls are given as the source filed them. No cut-off for these calls is given here.", "data": [{"smiles": "COc1ccc(C(=O)/C=C/C(=O)N2CCN(CC3CCN(Cc4cccc(Nc5ncc6ccn(CCCNC(=O)C7CCC7)c6n5)c4)CC3)CC2)cc1", "values": [{"measurement": "Activity", "setting": "Mus musculus [1]", "result": "Active"}, {"measurement": "Activity", "setting": "Mus musculus [2]", "result": 14, "unit": "%"}, {"measurement": "Activity", "setting": "[3]", "result": "Time-dependent-effect"}, {"measurement": "Activity", "setting": "Mus musculus [4]", "result": "Active"}, {"measurement": "Activity", "setting": "[5]", "result": "Active"}, {"measurement": "Tmax", "setting": "[6]", "result": 21.6, "unit": "min"}, {"measurement": "Activity", "setting": "Mus musculus [7]", "result": "Active"}, {"measurement": "Activity", "setting": "[8]", "result": "Active; Significant Reduction In Tbk1 Level Observed"}, {"measurement": "Activity", "setting": "Mus musculus [9]", "result": "Active"}, {"measurement": "Cmax", "setting": "[10]", "result": 1790, "unit": "nM"}, {"measurement": "Activity", "setting": "Mus musculus [11]", "result": "Active"}, {"measurement": "Tmax", "setting": "[12]", "result": 4.8, "unit": "min"}, {"measurement": "Activity", "setting": "[13]", "result": "Time-dependent-effect"}, {"measurement": "Emax", "setting": "[14]", "result": 91.9, "unit": "%"}]}]}
